Test results from US5460820A, “Methods for providing testosterone and optionally estrogen replacement therapy to women” (TheraTech, Inc., priority 1993, dated 1995).

How the values were obtained:
[1] = injectable esters; cited from earlier work
[2] = in vivo; cited from earlier work
[3] = solubility in receiver medium; type: physicochemical; conditions: 0.02% sodium azide solution, skin surface temperature 32°±1° C.
[4] = without some form of permeation enhancement; cited from earlier work

For `CCCCCCC(=O)O[C@H]1CC[C@H]2[C@@H]3CCC4=CC(=O)CC[C@]4(C)[C@H]3CC[C@]12C` [testosterone enanthate], the “fluctuations in hormone levels” value [1] is listed as “marked supraphysiological fluctuations in hormone levels”.

In the case of `C[C@]12CCC(=O)C=C1CC[C@@H]1[C@@H]2CC[C@@]2(C)[C@H]1CC[C@]2(C)O` [methyl testosterone], the hepatotoxicity [2] is listed as “known to be hepatotoxic”.

In the case of `CCC(=O)O[C@H]1CC[C@H]2[C@@H]3CCC4=CC(=O)CC[C@]4(C)[C@H]3CC[C@]12C` [testosterone propionate], the “fluctuations in hormone levels” value [1] is listed as “marked supraphysiological fluctuations in hormone levels”.

For `C[C@]12CC[C@H]3[C@@H](CCC4=CC(=O)CC[C@@]43C)[C@@H]1CC[C@@H]2O` [testosterone], the “solubility in receiver medium” value [3] is given as “adequate to ensure sink conditions throughout the experiment” and the “passage through non-scrotal skin” value [4] is given as “does not pass through non-scrotal skin at practical fluxes”.
